tested on: P. falciparum 3D7 growth, pLDH absorbance; test: P. falciparum 3D7 growth inhibition, dose response, strain 3D7 (AID 2305)

SMILES | IC50 [nM]
O=C(c1cc(-c2cccs2)[nH]n1)N1CCN(S(=O)(=O)c2ccc(Cl)cc2)CC1 | 290
Cc1ccc2oc3cc(-c4nn[nH]n4)ccc3c(=O)c2c1 | 90
O=S(=O)(NCCN1CCCC1)c1ccc(-c2cccc(CNCc3ccc(F)cc3)c2)s1 | 760
CCCCCCCCCCS(=O)(=O)N[C@H](COCc1cccc(Oc2ccccc2)c1)COP(=O)(O)OC | 1020
CC(=O)N1N=C(c2[nH]c3ccc(Br)cc3c2C)OC1c1ccccc1 (stereo not drawn) | 780
CNC(=O)COC(=O)c1c2c(nc3ccccc13)C(=Cc1ccc3c(c1)OCO3)CCC2 | 640
COc1ccc(CCn2c(=N)c(C(=O)NCc3ccc(C)cc3)cc3c(=O)n4ccccc4nc32)cc1 | 1130
Cc1[nH]c(C)c(-c2ccc(Oc3ccc(Cl)cc3)cc2)c(=O)c1C | 390
O=C1CCCN1CCCNCc1cccc(-c2cccc(-c3nc4ccc(F)cc4[nH]3)c2)c1 | 600
Oc1ccc2[nH]c(-c3cccs3)nc2c1CN1CCC(N2CCCC2)CC1 | 640
COc1ccc2[nH]c3ccccc3c(=O)c2c1 | 1000
NC(=S)Cc1ccc2c(c1)OCO2 | 280
COc1ccc(CN2CCC(NCc3cccc([N+](=O)[O-])c3)CC2)cc1 | 910
COc1cc(Cc2cnc(N)nc2N)cc(OCCCCCC(N)=O)c1OC | 1190
COc1ccc2nc(-c3ccc(F)cc3)cc([C@@H](O)[C@@H]3C[C@@H]4CCN3CC4C=NO)c2c1 (stereo partly drawn) | 250
O=C(Nc1ccc(Oc2ccccc2)cc1)N[C@H]1CCN(Cc2ccc(OCCCN3CCCCC3)cc2)C1 | 180
O=S1N=C(NCCCN(Cc2cccs2)c2ccccn2)C(NCc2ccccc2)=N1 (stereo not drawn) | 310
CCOc1ccc2c(NN=Cc3cccc(OC)c3OC)cc(C)nc2c1 | 900
COc1ccc2ncc(F)c([C@@H](O)CN3CCC(NCc4cc5c(cn4)OCCO5)CC3)c2c1 | 140
COc1ccc(C(c2ccc(N(C)C)cc2)c2ccc(N(C)C)cc2)cc1 | 60
Cc1ccc(C2CCN(CCCCNC(=O)c3ccc(-c4ccc(C(F)(F)F)cc4)cc3)CC2)c(O)c1 | 130
O=C(NC1CCN(Cc2ccccc2)CC1)c1ccc(-c2nc3cc4ccccc4cc3[nH]2)s1 | 600
Cc1cccc2[nH]c(-c3cccc(-c4ccc(CN5CCCC5CN)cc4)c3)nc12 (stereo not drawn) | 760
CN1CCC(NC(=O)c2cc(Oc3ccc4c(c3)CCN4C(=O)Nc3cccc(C(F)(F)F)c3)ccn2)CC1 | 930
CCOC(=O)CC[C@H](NC(=O)c1ccc(NS(=O)(=O)c2ccc(-c3cnc(N)[nH]c3=O)cc2)cc1)C(=O)OCC | 170

SMILES | IC50 [nM]
Clc1ccc(Nc2nc3ccc(Cl)cc3nc2Nc2ccc(Cl)cc2)cc1 | 130
O=C(NCCCCCN1CCC(c2c[nH]c3ccccc23)CC1)Nc1ccc(Cl)cc1Cl | 720
COc1ccc(NC(=O)c2ccc(-c3ccc(-c4cccnc4)cc3)c(C)c2)cc1OCCN(C)C | 200
COc1cc(NC(=O)c2nn(CCCN3CCC(N4CCCC4)CC3)cc2-c2ccc(Cl)c(Cl)c2)cc(OC)c1OC | 560
O=C(Nc1ccc2oc(-c3ccc(Cl)cc3Cl)nc2c1)c1ccc([N+](=O)[O-])o1 | 1100
CC(CN(C)C)Oc1ccc2[nH]c(-c3cccc(OCc4ccccc4)c3)nc2c1C#N (stereo not drawn) | 410
CCNc1cc(C)nc(Nc2ccc(NC(=O)C3CCCC3)cc2)n1 | 1120
CCn1c(Sc2ccc([N+](=O)[O-])c(C#N)c2)nnc1-c1cccc(Cl)c1 | 870
CCC[C@@H]([C@@H](CC(C)C)C(=O)N[C@@H](CCCCNC(=O)c1ccccn1)C(=O)Nc1nccs1)N(O)C=O | 50
O=C(/C=C/c1ccc(Cl)c(Cl)c1)N1CCC(CN2CCC(c3c[nH]c4ncccc34)CC2)CC1 | 1090
CN(C)c1ccc(CN2CCC(CNC(=O)c3cc(-c4cccc(F)c4)cs3)C2)cc1 (stereo not drawn) | 1020
Cc1ccc(Nc2nc(C)cc(Nc3cccc(NS(C)(=O)=O)c3)n2)cc1 | 920
O=C(NCCN1CCCCC1)c1ccc(CNC(=O)c2ccc(O)c(-c3cccc(C(F)(F)F)c3)c2)cc1 | 890
COc1ccc(CN2CCN(CCOC(c3ccc(F)cc3)c3ccc(F)cc3)CC2)c(O)c1 | 730
Cc1cccc(Nc2nccc(Nc3cccc(C(=O)NCCN4CCOCC4)c3)n2)c1 | 1420
CCOC(=O)c1ccc(OCCCCCCOc2ccc(Br)cc2)cc1 | 780
Cn1cc(CN2CCC(OC(c3ccccc3)c3ccc(Cl)cc3)CC2)cn1 (stereo not drawn) | 840
COc1ccc(-c2ccc(NC(=O)c3cccc(Cl)c3)cc2)cc1CN1CCCC1 | 710
N#Cc1ccc2[nH]cc(CN3CCC4(CC3)CN(CCNCc3ccccc3)C(=O)CO4)c2c1 | 760
Cc1cc(=O)c(-c2ccc(OCc3ccc(Cl)cc3)cc2)c(C)[nH]1 | 730
COc1ccc2cc(C(c3nnnn3CC3CCCO3)N3CCc4ccccc43)c(=O)[nH]c2c1 (stereo not drawn) | 800
COc1ccc2cc(-c3nc(-c4c(Cl)cccc4Cl)[nH]c3-c3ccnc(NCCCN4CCN(C)CC4)c3)ccc2c1 | 710
CC1CCCCN1CCCNC(=O)c1cccc(-c2cc3cc(Cl)c(Cl)cc3[nH]2)c1 (stereo not drawn) | 880
COCCNCc1cccc(-c2cc3nccc(Nc4ccc(Oc5ccccc5)cc4)c3cc2Cl)c1 | 1380
CN(C)Cc1ccc2cc(NC(=O)c3ccc(-c4ccc(Cl)cc4)cc3)ccc2n1 | 850

SMILES | IC50 [nM]
CC(C)(C)c1ccc2nc(-c3ccc(/C=C/C(=O)NC4CCN(Cc5ccccc5)CC4)cc3)[nH]c2c1 | 590
CCOC(=O)c1sc(C(C)Nc2ccccc2)nc1-c1ccccc1 (stereo not drawn) | 330
Cc1cccc2[nH]c(-c3cccc(-c4cccc(CN5CCCC5CN)c4)c3)nc12 (stereo not drawn) | 770
Cc1ccc2sc(N3CCN(C(=O)c4ccc([N+](=O)[O-])o4)CC3)nc2c1C | 940
CCC1CN2CCc3c([nH]c4ccccc34)C2CC1CC1=NCCc2c1[nH]c1ccccc21 (stereo not drawn) | 740
CCN(CC)CCN1C(=O)c2oc3ccc(F)cc3c(=O)c2C1c1cccc(Cl)c1 (stereo not drawn) | 530
Cc1nc2ccc(S(=O)(=O)Nc3ccc(C(=O)N[C@@H](CCC(=O)O)C(=O)O)cc3)cc2c(=O)[nH]1 | 1010
CC(C)Nc1nc(NCCc2cnc[nH]2)nc(Nc2ccc(Oc3ccccc3)cc2)n1 | 890
COc1cc(Cc2cnc(N)nc2N)ccc1OCc1ccc(-c2ccccc2C#N)cc1 | 940
Cc1cc(NC(=O)Nc2ccc3nccc(N4CCN(C)CC4)c3c2)ccc1Br | 90
O=C(Nc1ccc(-c2cccc(-c3nc4ccc(C(F)(F)F)cc4[nH]3)c2)cc1)c1ccncc1 | 660
Cc1[nH]c(C)c(-c2ccc(-c3ccc(C#N)cc3)nc2)c(=O)c1Br | 980
Cc1ccc([N+](=O)[O-])cc1NC(=O)N(CC(O)c1ccccc1)C1CCCCC1 (stereo not drawn) | 730
Cc1cc(=O)[nH]c2cc(Nc3ccnc(Nc4cccc(C(N)=O)c4)n3)ccc12 | 1520
O=C(NCCNc1ccnc(NCc2ccc(F)cc2)n1)c1cc2ccccc2s1 | 700
CC(C)(CNCc1ccc(F)c(F)c1)c1nc(-c2ccc(Cl)c(O)c2)c(-c2ccncc2)[nH]1 | 660
Cc1cc(C(=O)Nc2ccc3c(c2)CCN3C2CCN(Cc3ccc(O)cc3)C2)no1 (stereo not drawn) | 770
O=C(Nc1cncc(NC(=O)c2ccc(Cl)c(Cl)c2)c1)c1ccc(Cl)c(Cl)c1 | 730
CCn1cnc2c(N3CCCS3(=O)=O)cc(C(=O)N[C@@H](Cc3ccccc3)[C@H](O)CNC(C)(C)c3cccc(C(F)(F)F)c3)cc21 | 230
Cc1ccc(OCCCCONC(=O)c2ccccc2)cc1 | 150
CC(C)C[C@@H](CNC[C@H](CC(C)C)NC(=O)OC(C)(C)C)NC(=O)OC(C)(C)C | 1250
CN(CCCNCc1cccc2ccccc12)CCCNCc1cccc2ccccc12 | 720
CC(C)C[C@H](Nc1ccc(C#N)c2ccccc12)C(=O)NC(C)(C)C12CC3CC(CC(C3)C1)C2 | 920
CC(C)(C)C1CCC(CC2=C(C(=O)O)c3ccccc3C2=O)CC1 (stereo not drawn) | 1100
Cc1ccc(CNC(=O)c2cnc(N3CCN(c4ccncc4)CC3)c(Cl)c2)cc1 | 1290

SMILES | IC50 [nM]
Nc1ncc(-c2ccc(Br)cc2)c(N)n1 | 920
OCCN1CCN(Cc2ccc(-c3ccc(-c4nc5ccc(F)cc5[nH]4)cc3)cc2)CC1 | 570
CC(C)c1cccc(OCC2CCN(c3ncc(C(=O)Nc4ccccc4)cc3Cl)CC2)c1 | 1060
CCOC(=O)c1ccc(NC(=O)Nc2ccc(-c3ccc(-c4nc5ccc(C(F)(F)F)cc5[nH]4)cc3)cc2)cc1 | 270
Cc1cccc2[nH]c(-c3cccc(-c4cccc(C(=O)NCCc5cn(C)cn5)c4)c3)nc12 | 590
CN(C)CCNC(=O)[C@H](CC1CCCCC1)NC(=O)c1ccc(O)c(-c2ccc(Cl)c(Cl)c2)c1 | 770
CC(C)(CNC(=O)C1CCN(CCOc2ccc(F)c(F)c2)CC1)c1nc(-c2ccc(Cl)c(O)c2)c(-c2ccncc2)[nH]1 | 320
O=C(/C=C/c1ccc(Cl)c(Cl)c1)NCCCCCCN1CCCN(C(=O)Nc2ccc(Cl)c(Cl)c2)CC1 | 670
CCC(C)CC(=O)Nc1ccc(OC)c(S(=O)(=O)N[C@@H]2CCN(C#N)C2)c1 (stereo partly drawn) | 1490
CCCCCCCC1CCN(C[C@H](O)c2ccnc3ccc(OC)cc23)CC1 | 960
CC(C)NCc1ccc(-c2cccc(NC(=O)c3cccc(C#N)c3)c2)cc1 | 410
COc1ccc2nccc([C@@H](O)CN3CCC(NCc4cc5c(F)ccc(F)c5[nH]4)CC3)c2n1 | 700
COc1ccc2nc(Nc3nc(-c4ccccn4)cs3)sc2c1 | 1120
CN1CCN(Cc2c(O)ccc3c(=O)c(Oc4ccc(C(C)(C)C)cc4)c(C(F)(F)F)oc23)CC1 | 810
COc1ccccc1N1CCN(C(C(=O)NCc2ccc(C)cc2)c2ccc(C)cc2)CC1 (stereo not drawn) | 930
CN1CCN(c2ccnc3ccc(NC(=O)Cc4ccc(OCc5ccccc5)cc4)cc23)CC1 | 630
O=S(=O)(NCCN1CCCC1)c1ccc(-c2ccc(CNCc3ccc(F)cc3)cc2)cc1F | 1280
O=C(/C=C/c1ccc(Cl)c(Cl)c1)NCC1CCC(CN2CCC(c3c[nH]c4ccccc34)CC2)CC1 (stereo not drawn) | 360
Cc1ccccc1C1CCN(C2CCC(NC(=O)c3ccc4c(c3)-c3nocc3C(C)O4)CC2)CC1 (stereo not drawn) | 1270
Oc1cccc(Nc2nc(NCc3ccco3)c3ccccc3n2)c1 | 410
O=C(Nc1cccc(-c2ccc(CN3CCCC3)cc2)c1)c1cccc(F)c1 | 780
O=C(/C=C/c1ccc(Cl)c(Cl)c1)NCCCCCCN1CCCN(C(=O)Nc2cc(Cl)cc(Cl)c2)CC1 | 780
C=CCNC(CCCCC)c1ccc(OCCOc2ccc(C(CCCCC)NCC=C)cc2)cc1 (stereo not drawn) | 570

Reference: PubChem BioAssay AID2305 (GlaxoSmithKline (GSK), 2010)
